{"source": "patent US10670605B2", "about": "“Cysteine reactive probes and uses thereof” (The Scripps Research Institute, priority 2015, dated 2020)", "assay_in_all_cases": "Competitive isoTOP-ABPP, cell lysates;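 for isoTOP-ABPP reactivity profile ratio, P09211 C48: Heavy/light ratio DMSO over fragment-treated so higher means more cysteine engagement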;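 for isoTOP-ABPP reactivity profile ratio, P63244 C182: Heavy/light ratio DMSO over fragment-treated so higher means more cysteine engagement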;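 for isoTOP-ABPP reactivity profile ratio, Q99873 C109: Heavy/light ratio DMSO over fragment-treated so higher means more cysteine engagement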", "format_in_all_cases": "binding", "key": {"GSTP1 C48 (P09211)": {"target": "GSTP1 C48 (P09211) (Homo sapiens, UniProt P09211)", "sequence (P09211 whole entry)": "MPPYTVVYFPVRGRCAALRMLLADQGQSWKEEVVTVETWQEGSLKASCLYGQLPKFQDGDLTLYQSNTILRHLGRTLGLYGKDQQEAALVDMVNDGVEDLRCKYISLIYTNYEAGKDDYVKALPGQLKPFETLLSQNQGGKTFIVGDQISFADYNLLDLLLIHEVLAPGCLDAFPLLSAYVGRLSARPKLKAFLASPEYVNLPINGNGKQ", "details": "for isoTOP-ABPP reactivity profile ratio, P09211_C48: 500 μm"}, "XPO1 C34 (O14980)": {"target": "XPO1 C34 (O14980) (Homo sapiens, UniProt O14980)", "sequence (O14980 whole entry)": "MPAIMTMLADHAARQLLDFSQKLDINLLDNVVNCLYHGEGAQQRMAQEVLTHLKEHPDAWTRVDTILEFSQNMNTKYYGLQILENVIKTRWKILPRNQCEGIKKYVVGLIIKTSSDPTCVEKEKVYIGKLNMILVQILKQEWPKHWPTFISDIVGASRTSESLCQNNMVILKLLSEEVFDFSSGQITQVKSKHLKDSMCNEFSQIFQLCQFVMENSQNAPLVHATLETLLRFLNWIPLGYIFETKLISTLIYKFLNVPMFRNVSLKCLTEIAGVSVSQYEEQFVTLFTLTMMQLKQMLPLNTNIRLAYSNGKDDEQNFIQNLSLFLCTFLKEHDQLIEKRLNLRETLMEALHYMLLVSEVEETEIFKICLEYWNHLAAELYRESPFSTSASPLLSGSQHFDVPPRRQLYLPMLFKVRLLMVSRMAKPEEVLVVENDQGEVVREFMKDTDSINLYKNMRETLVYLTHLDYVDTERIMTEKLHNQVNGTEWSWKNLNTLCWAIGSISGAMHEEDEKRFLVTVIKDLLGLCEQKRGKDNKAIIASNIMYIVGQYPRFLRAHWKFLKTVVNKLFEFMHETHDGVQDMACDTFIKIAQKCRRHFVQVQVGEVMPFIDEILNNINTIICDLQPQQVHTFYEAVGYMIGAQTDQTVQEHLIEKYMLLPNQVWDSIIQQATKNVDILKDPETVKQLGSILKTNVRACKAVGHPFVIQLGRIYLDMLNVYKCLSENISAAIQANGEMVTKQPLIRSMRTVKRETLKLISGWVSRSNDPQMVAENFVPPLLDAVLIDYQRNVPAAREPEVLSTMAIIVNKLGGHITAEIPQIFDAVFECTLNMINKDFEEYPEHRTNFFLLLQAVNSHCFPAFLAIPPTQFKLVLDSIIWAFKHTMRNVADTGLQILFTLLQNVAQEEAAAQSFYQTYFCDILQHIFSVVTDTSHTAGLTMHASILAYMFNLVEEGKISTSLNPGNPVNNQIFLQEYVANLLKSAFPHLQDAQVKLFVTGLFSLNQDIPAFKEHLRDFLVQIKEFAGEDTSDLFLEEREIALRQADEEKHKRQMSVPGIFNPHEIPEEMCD", "details": "for isoTOP-ABPP reactivity profile ratio, O14980_C34: 500 μm"}, "PRMT1 C109 (Q99873)": {"target": "PRMT1 C109 (Q99873) (Homo sapiens, UniProt Q99873)", "sequence (Q99873 whole entry)": "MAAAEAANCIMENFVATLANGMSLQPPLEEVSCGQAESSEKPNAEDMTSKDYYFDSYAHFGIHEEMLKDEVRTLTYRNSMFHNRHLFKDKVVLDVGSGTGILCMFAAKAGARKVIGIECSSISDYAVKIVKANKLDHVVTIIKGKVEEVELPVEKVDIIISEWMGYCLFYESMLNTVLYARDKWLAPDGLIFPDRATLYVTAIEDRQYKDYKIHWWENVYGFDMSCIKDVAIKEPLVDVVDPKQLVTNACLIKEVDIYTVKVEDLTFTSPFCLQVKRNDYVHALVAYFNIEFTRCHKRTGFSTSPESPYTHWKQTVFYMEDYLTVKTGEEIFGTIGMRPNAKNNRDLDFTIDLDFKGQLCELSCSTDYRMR", "details": "for isoTOP-ABPP reactivity profile ratio, Q99873_C109: 500 μm"}, "GNB2L1 C182 (P63244)": {"target": "GNB2L1 C182 (P63244) (Homo sapiens, UniProt P63244)", "details": "for isoTOP-ABPP reactivity profile ratio, P63244_C182: 500 μm"}, "PDE12 C108 (Q6L8Q7)": {"target": "T1, PDE12 C108 (Q6L8Q7) (Homo sapiens, UniProt Q6L8Q7)", "T1 sequence (Q6L8Q7 43-609)": "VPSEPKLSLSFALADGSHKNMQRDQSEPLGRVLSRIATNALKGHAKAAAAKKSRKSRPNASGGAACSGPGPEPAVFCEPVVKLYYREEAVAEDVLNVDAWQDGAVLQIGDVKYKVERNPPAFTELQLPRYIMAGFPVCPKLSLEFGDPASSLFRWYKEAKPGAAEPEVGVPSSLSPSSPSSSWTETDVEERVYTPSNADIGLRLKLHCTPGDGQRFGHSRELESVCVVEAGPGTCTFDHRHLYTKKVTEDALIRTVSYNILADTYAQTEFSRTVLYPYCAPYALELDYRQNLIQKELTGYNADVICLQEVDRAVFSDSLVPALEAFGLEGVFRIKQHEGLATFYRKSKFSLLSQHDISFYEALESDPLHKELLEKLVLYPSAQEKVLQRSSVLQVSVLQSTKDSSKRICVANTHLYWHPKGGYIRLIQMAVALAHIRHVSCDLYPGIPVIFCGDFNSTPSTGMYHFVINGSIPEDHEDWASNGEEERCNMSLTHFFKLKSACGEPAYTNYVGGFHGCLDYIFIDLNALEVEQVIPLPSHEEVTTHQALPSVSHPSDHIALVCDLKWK"}, "DCUN1D1 C115 (Q96GG9)": {"target": "DCUN1D1 C115 (Q96GG9) (Homo sapiens, UniProt Q96GG9)", "sequence (Q96GG9 whole entry)": "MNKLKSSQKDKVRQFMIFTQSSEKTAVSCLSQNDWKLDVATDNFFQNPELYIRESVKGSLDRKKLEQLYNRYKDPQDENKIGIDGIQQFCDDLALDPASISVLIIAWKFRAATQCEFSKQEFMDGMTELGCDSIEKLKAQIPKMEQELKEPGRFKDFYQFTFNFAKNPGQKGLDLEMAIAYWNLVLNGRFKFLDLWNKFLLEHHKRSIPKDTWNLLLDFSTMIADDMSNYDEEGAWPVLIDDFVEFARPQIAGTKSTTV", "details": "500 μm, in-vitro_ramos"}, "ZNF217 C286 (O75362)": {"target": "ZNF217 C286 (O75362) (Homo sapiens, UniProt O75362)", "sequence (O75362 whole entry)": "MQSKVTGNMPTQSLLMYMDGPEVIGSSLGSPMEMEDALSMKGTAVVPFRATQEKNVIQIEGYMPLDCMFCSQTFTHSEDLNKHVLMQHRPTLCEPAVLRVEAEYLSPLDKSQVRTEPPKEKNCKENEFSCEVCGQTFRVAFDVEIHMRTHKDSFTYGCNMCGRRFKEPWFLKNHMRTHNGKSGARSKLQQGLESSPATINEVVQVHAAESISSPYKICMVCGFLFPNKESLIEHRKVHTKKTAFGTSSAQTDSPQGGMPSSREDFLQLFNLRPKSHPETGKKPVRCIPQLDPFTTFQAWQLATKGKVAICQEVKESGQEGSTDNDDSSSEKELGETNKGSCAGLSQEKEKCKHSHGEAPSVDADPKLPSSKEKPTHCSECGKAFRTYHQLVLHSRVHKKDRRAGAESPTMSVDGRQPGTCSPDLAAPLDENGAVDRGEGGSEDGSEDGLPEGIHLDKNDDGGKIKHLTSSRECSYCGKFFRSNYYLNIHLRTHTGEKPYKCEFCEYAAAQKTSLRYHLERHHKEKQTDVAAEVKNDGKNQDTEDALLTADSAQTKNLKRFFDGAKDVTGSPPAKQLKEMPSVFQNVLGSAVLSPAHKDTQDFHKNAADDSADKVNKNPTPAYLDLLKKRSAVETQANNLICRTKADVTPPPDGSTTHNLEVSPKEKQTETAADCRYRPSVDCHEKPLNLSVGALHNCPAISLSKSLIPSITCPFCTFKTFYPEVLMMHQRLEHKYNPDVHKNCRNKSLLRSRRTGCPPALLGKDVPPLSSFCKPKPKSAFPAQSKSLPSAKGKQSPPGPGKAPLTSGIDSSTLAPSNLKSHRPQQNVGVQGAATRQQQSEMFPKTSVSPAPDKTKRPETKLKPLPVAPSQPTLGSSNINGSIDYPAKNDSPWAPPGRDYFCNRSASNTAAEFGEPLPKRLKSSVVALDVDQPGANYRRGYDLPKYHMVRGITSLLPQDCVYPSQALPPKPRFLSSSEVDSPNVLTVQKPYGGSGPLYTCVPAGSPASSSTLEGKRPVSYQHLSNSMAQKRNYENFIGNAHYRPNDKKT"}, "MGMT C150 (P16455)": {"target": "T2, MGMT C150 (P16455) (Homo sapiens, UniProt P16455)", "T2 sequence (P16455 1-207)": "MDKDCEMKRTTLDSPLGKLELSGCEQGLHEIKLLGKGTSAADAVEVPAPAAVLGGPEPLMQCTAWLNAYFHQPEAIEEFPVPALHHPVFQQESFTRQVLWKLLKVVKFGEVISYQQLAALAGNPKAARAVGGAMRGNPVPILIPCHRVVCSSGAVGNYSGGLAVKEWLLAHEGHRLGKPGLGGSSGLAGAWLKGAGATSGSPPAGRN"}, "PDIA6 C190 (Q15084)": {"target": "T3, PDIA6 C190 (Q15084) (Homo sapiens, UniProt Q15084)", "T3 sequence (Q15084 20-440)": "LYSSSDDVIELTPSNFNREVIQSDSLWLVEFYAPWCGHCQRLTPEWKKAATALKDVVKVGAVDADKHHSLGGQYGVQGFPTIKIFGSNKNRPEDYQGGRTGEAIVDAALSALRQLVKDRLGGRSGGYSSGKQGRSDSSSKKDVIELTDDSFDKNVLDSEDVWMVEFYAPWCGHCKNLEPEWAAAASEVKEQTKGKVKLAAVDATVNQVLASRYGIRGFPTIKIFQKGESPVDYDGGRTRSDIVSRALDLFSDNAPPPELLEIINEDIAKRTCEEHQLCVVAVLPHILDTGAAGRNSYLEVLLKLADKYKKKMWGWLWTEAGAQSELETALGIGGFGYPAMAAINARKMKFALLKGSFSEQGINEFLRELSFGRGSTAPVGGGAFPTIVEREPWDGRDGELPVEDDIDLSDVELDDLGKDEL"}}}
{"smiles": "O=C(CCl)N1CCc2cc(Br)ccc21", "note": "[compound 50]", "values": [{"measurement": "isoTOP-ABPP reactivity profile ratio, P09211_C48", "setting": "GSTP1 C48 (P09211); in-vitro_ramos_231", "value": 2.3}, {"measurement": "isoTOP-ABPP reactivity profile ratio, O14980_C34", "setting": "XPO1 C34 (O14980); in-vitro_ramos_231", "value": 1.2}, {"measurement": "isoTOP-ABPP reactivity profile ratio, Q99873_C109", "setting": "PRMT1 C109 (Q99873); in-vitro_ramos_231", "value": 1.0}, {"measurement": "isoTOP-ABPP reactivity profile ratio, P63244_C182", "setting": "GNB2L1 C182 (P63244); in-vitro_ramos_231", "value": 0.8}, {"measurement": "isoTOP-ABPP reactivity profile ratio, Q6L8Q7_C108", "setting": "PDE12 C108 (Q6L8Q7); 500 μm, in-vitro_ramos_231", "value": 1.8}]}
{"smiles": "N#CC(=Cc1ccc(-c2ccccc2Cl)o1)C(N)=O", "note": "[compound 42]", "values": [{"measurement": "isoTOP-ABPP reactivity profile ratio, P09211_C48", "setting": "GSTP1 C48 (P09211); in-vitro_ramos", "value": 0.7}, {"measurement": "isoTOP-ABPP reactivity profile ratio, Q96GG9_C115", "setting": "DCUN1D1 C115 (Q96GG9)", "value": 0.9}, {"measurement": "isoTOP-ABPP reactivity profile ratio, O14980_C34", "setting": "XPO1 C34 (O14980); in-vitro_ramos", "value": 0.9}, {"measurement": "isoTOP-ABPP reactivity profile ratio, Q99873_C109", "setting": "PRMT1 C109 (Q99873); in-vitro_ramos", "value": 0.9}, {"measurement": "isoTOP-ABPP reactivity profile ratio, P63244_C182", "setting": "GNB2L1 C182 (P63244); in-vitro_ramos", "value": 0.8}, {"measurement": "isoTOP-ABPP reactivity profile ratio, O75362_C286", "setting": "ZNF217 C286 (O75362); 500 μm, in-vitro_ramos", "value": 1.0}, {"measurement": "isoTOP-ABPP reactivity profile ratio, P16455_C150", "setting": "MGMT C150 (P16455); 500 μm, in-vitro_ramos", "value": 0.8}]}
{"smiles": "COc1ccccc1OCCNC(=O)CCl", "note": "[compound 28]", "values": [{"measurement": "isoTOP-ABPP ratio (reactivity profile), P09211_C48", "setting": "GSTP1 C48 (P09211); 500 μm in-vitro ramos", "value": 1.5}, {"measurement": "isoTOP-ABPP ratio (reactivity profile), P09211_C48", "setting": "GSTP1 C48 (P09211); 500 μm in-vitro ramos_231", "value": 1.3}, {"measurement": "isoTOP-ABPP ratio (reactivity profile), Q15084_C190", "setting": "PDIA6 C190 (Q15084); 500 μm in-vitro ramos", "value": 1.6}, {"measurement": "isoTOP-ABPP ratio (reactivity profile), Q15084_C190", "setting": "PDIA6 C190 (Q15084); 500 μm in-vitro ramos_231", "value": 1.1}, {"measurement": "isoTOP-ABPP ratio (reactivity profile), O14980_C34", "setting": "XPO1 C34 (O14980); 500 μm in-vitro ramos", "value": 0.9}, {"measurement": "isoTOP-ABPP ratio (reactivity profile), O14980_C34", "setting": "XPO1 C34 (O14980); 500 μm in-vitro ramos_231", "value": 0.8}, {"measurement": "isoTOP-ABPP ratio (reactivity profile), Q99873_C109", "setting": "PRMT1 C109 (Q99873); 500 μm in-vitro ramos", "value": 1.1}, {"measurement": "isoTOP-ABPP ratio (reactivity profile), Q99873_C109", "setting": "PRMT1 C109 (Q99873); 500 μm in-vitro ramos_231", "value": 0.8}, {"measurement": "isoTOP-ABPP ratio (reactivity profile), P63244_C182", "setting": "GNB2L1 C182 (P63244); 500 μm in-vitro ramos", "value": 1.1}, {"measurement": "isoTOP-ABPP ratio (reactivity profile), P63244_C182", "setting": "GNB2L1 C182 (P63244); 500 μm in-vitro ramos_231", "value": 1.0}, {"measurement": "isoTOP-ABPP ratio (reactivity profile), O75362_C286", "setting": "ZNF217 C286 (O75362); 500 μm in-vitro ramos", "value": 1.0}, {"measurement": "isoTOP-ABPP ratio (reactivity profile), O75362_C286", "setting": "ZNF217 C286 (O75362); 500 μm in-vitro ramos_231", "value": 1.0}, {"measurement": "isoTOP-ABPP ratio (reactivity profile), Q6L8Q7_C108", "setting": "PDE12 C108 (Q6L8Q7); 500 μm in-vitro ramos", "value": 1.2}, {"measurement": "isoTOP-ABPP ratio (reactivity profile), Q6L8Q7_C108", "setting": "PDE12 C108 (Q6L8Q7); 500 μm in-vitro ramos_231", "value": 1.0}, {"measurement": "isoTOP-ABPP ratio (reactivity profile), P16455_C150", "setting": "MGMT C150 (P16455); 500 μm in-vitro ramos", "value": 1.7}]}
